From PubChem BioAssay (NCI)
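48-hour exposure; five concentrations; linearly interpolated endpoints. Definition used: TGI = concentration required for complete inhibition of growth.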

How the values were obtained:
Assay in all cases: inhibition of tumour cell growth, NCI panel, 48 h
SF-295 CNS = system: SF-295 CNS
HT29 colon = system: HT29 colon
LOX IMVI melanoma = system: LOX IMVI melanoma
M14 melanoma = system: M14 melanoma
MCF7 breast = system: MCF7 breast
MDA-MB-231 breast = system: MDA-MB-231 breast
HCC-2998 colon = system: HCC-2998 colon
NCI/ADR-RES ovarian = system: NCI/ADR-RES ovarian
NCI-H460 lung = system: NCI-H460 lung
786-0 renal = system: 786-0 renal
IGROV1 ovarian = system: IGROV1 ovarian
SK-OV-3 ovarian = system: SK-OV-3 ovarian
HCT-116 colon = system: HCT-116 colon
SK-MEL-2 melanoma = system: SK-MEL-2 melanoma
CAKI-1 renal = system: CAKI-1 renal
RXF 393 renal = system: RXF 393 renal
UO-31 renal = system: UO-31 renal
MDA-N = system: MDA-N
OVCAR-3 ovarian = system: OVCAR-3 ovarian
UACC-257 melanoma = system: UACC-257 melanoma
T-47D breast = system: T-47D breast
HOP-92 NSCLC = system: HOP-92 NSCLC
SF-539 CNS = system: SF-539 CNS
OVCAR-5 ovarian = system: OVCAR-5 ovarian
KM12 colon = system: KM12 colon
BT-549 breast = system: BT-549 breast
MOLT-4 leukemia = system: MOLT-4 leukemia
OVCAR-4 ovarian = system: OVCAR-4 ovarian
TK-10 renal = system: TK-10 renal
A549 NSCLC = system: A549 NSCLC
DU-145 prostate = system: DU-145 prostate
SNB-19 CNS = system: SNB-19 CNS
CCRF-CEM leukemia = system: CCRF-CEM leukemia
U251 CNS = system: U251 CNS
SNB-75 CNS = system: SNB-75 CNS
EKVX NSCLC = system: EKVX NSCLC
K-562 leukemia = system: K-562 leukemia
UACC-62 melanoma = system: UACC-62 melanoma
HL-60(TB) leukemia = system: HL-60(TB) leukemia
SF-268 CNS = system: SF-268 CNS
MALME-3M melanoma = system: MALME-3M melanoma
HCT-15 colon = system: HCT-15 colon
NCI-H522 lung = system: NCI-H522 lung
SK-MEL-5 melanoma = system: SK-MEL-5 melanoma
COLO 205 colon = system: COLO 205 colon
SK-MEL-28 melanoma = system: SK-MEL-28 melanoma
NCI-H226 lung = system: NCI-H226 lung
SR leukemia = system: SR leukemia
SW-620 colon = system: SW-620 colon
NCI-H23 lung = system: NCI-H23 lung
OVCAR-8 ovarian = system: OVCAR-8 ovarian
PC-3 prostate = system: PC-3 prostate
RPMI-8226 leukemia = system: RPMI-8226 leukemia
SN12C renal = system: SN12C renal
A498 renal = system: A498 renal
HS 578T breast = system: HS 578T breast
HOP-62 NSCLC = system: HOP-62 NSCLC
MDA-MB-435 = system: MDA-MB-435
ACHN renal = system: ACHN renal

SMILES: C/C=C(\C)C(=O)OC1C2C(C)C(=O)OC2C(O)C(C)C2C=CC(=O)C21C (stereo not drawn)
- TGI (SF-295 CNS): 32.7 µM
- TGI (HT29 colon): 32 µM
- TGI (LOX IMVI melanoma): 28.5 µM
- TGI (M14 melanoma): 31.3 µM
- TGI (MCF7 breast): 21.6 µM
- TGI (MDA-MB-231 breast): 13.7 µM
- TGI (HCC-2998 colon): 29.8 µM
- TGI (NCI/ADR-RES ovarian): 49.9 µM
- TGI (NCI-H460 lung): 20.6 µM
- TGI (786-0 renal): 30.3 µM
- TGI (IGROV1 ovarian): 25.5 µM
- TGI (SK-OV-3 ovarian): 39.6 µM
- TGI (HCT-116 colon): 22.6 µM
- TGI (SK-MEL-2 melanoma): 34.4 µM
- TGI (CAKI-1 renal): 28.4 µM
- TGI (RXF 393 renal): 24.5 µM
- TGI (UO-31 renal): 32.8 µM
- TGI (MDA-N): 22.8 µM
- TGI (OVCAR-3 ovarian): 23.7 µM
- TGI (UACC-257 melanoma): 30.2 µM
- TGI (T-47D breast): 43.3 µM
- TGI (HOP-92 NSCLC): 50.5 µM
- TGI (SF-539 CNS): 36.4 µM
- TGI (OVCAR-5 ovarian): 38.8 µM
- TGI (KM12 colon): 30.3 µM
- TGI (BT-549 breast): 25.2 µM
- TGI (MOLT-4 leukemia): 33.7 µM
- TGI (OVCAR-4 ovarian): > 74.7 µM
- TGI (TK-10 renal): 26.9 µM
- TGI (A549 NSCLC): 61.3 µM
- TGI (DU-145 prostate): 24.7 µM
- TGI (SNB-19 CNS): 26.3 µM
- TGI (CCRF-CEM leukemia): 35.1 µM
- TGI (U251 CNS): 24.6 µM
- TGI (SNB-75 CNS): 43.3 µM
- TGI (EKVX NSCLC): 38 µM
- TGI (K-562 leukemia): 17.4 µM
- TGI (UACC-62 melanoma): 26.1 µM
- TGI (HL-60(TB) leukemia): 18.4 µM
- TGI (SF-268 CNS): 56.5 µM
- TGI (MALME-3M melanoma): 27 µM
- TGI (HCT-15 colon): 34.5 µM
- TGI (NCI-H522 lung): 12.5 µM
- TGI (SK-MEL-5 melanoma): 21.4 µM
- TGI (COLO 205 colon): 26.3 µM
- TGI (SK-MEL-28 melanoma): 28.1 µM
- TGI (NCI-H226 lung): 46.5 µM
- TGI (SR leukemia): 18.3 µM
- TGI (SW-620 colon): 28.7 µM
- TGI (NCI-H23 lung): 27.1 µM
- TGI (OVCAR-8 ovarian): 34.8 µM
- TGI (PC-3 prostate): 34.1 µM
- TGI (RPMI-8226 leukemia): 32.1 µM
- TGI (SN12C renal): 43.1 µM
- TGI (A498 renal): 53.3 µM
- TGI (HS 578T breast): > 64.7 µM
- TGI (HOP-62 NSCLC): 40.3 µM
- TGI (MDA-MB-435): 26.1 µM
- TGI (ACHN renal): 26.8 µM

SMILES: Cc1ccc2nc(CC(=O)c3ccc4ccccc4c3)c(=O)[nH]c2c1
- TGI (SF-295 CNS): > 100 µM
- TGI (HT29 colon): > 100 µM
- TGI (LOX IMVI melanoma): > 100 µM
- TGI (M14 melanoma): > 100 µM
- TGI (MCF7 breast): > 100 µM
- TGI (MDA-MB-231 breast): > 100 µM
- TGI (HCC-2998 colon): > 100 µM
- TGI (NCI/ADR-RES ovarian): > 100 µM
- TGI (NCI-H460 lung): > 100 µM
- TGI (786-0 renal): > 100 µM
- TGI (IGROV1 ovarian): > 100 µM
- TGI (SK-OV-3 ovarian): > 100 µM
- TGI (HCT-116 colon): > 100 µM
- TGI (SK-MEL-2 melanoma): > 100 µM
- TGI (CAKI-1 renal): > 100 µM
- TGI (RXF 393 renal): > 100 µM
- TGI (UO-31 renal): > 100 µM
- TGI (MDA-N): > 100 µM
- TGI (OVCAR-3 ovarian): > 100 µM
- TGI (UACC-257 melanoma): > 100 µM
- TGI (T-47D breast): > 100 µM
- TGI (HOP-92 NSCLC): > 100 µM
- TGI (SF-539 CNS): > 100 µM
- TGI (OVCAR-5 ovarian): > 100 µM
- TGI (KM12 colon): > 100 µM
- TGI (BT-549 breast): > 100 µM
- TGI (MOLT-4 leukemia): > 100 µM
- TGI (OVCAR-4 ovarian): > 100 µM
- TGI (TK-10 renal): > 100 µM
- TGI (A549 NSCLC): > 100 µM
- TGI (DU-145 prostate): > 100 µM
- TGI (SNB-19 CNS): > 100 µM
- TGI (CCRF-CEM leukemia): > 100 µM
- TGI (U251 CNS): > 100 µM
- TGI (SNB-75 CNS): > 100 µM
- TGI (EKVX NSCLC): > 100 µM
- TGI (K-562 leukemia): > 100 µM
- TGI (UACC-62 melanoma): > 100 µM
- TGI (HL-60(TB) leukemia): > 100 µM
- TGI (SF-268 CNS): > 100 µM
- TGI (MALME-3M melanoma): > 100 µM
- TGI (HCT-15 colon): > 100 µM
- TGI (NCI-H522 lung): > 100 µM
- TGI (SK-MEL-5 melanoma): > 100 µM
- TGI (COLO 205 colon): > 100 µM
- TGI (SK-MEL-28 melanoma): > 100 µM
- TGI (NCI-H226 lung): > 100 µM
- TGI (SR leukemia): > 100 µM
- TGI (SW-620 colon): > 100 µM
- TGI (NCI-H23 lung): > 100 µM
- TGI (OVCAR-8 ovarian): > 100 µM
- TGI (PC-3 prostate): > 100 µM
- TGI (RPMI-8226 leukemia): > 100 µM
- TGI (SN12C renal): > 100 µM
- TGI (A498 renal): > 100 µM
- TGI (HS 578T breast): > 100 µM
- TGI (HOP-62 NSCLC): > 100 µM
- TGI (MDA-MB-435): > 100 µM
- TGI (ACHN renal): > 100 µM
